Read-outs that look alike come from different tables or passages of the source.
Tests used:
[1] = target: T1, SIV tilted peptide (Simian immunodeficiency virus, UniProt P05885); assay type: biochemical; details: for concentration at which complete (or nearly complete) inhibition of fusion is reached: Tris NaCl buffer pH 8.0, SIV tilted peptide 0.966 μM (FIG. 2); for concentration at which inhibition is complete: Tris NaCl buffer pH 7.4, SIV tilted peptide 0.966 μM (FIG. 6); for inhibition of LUV fusion: Tris NaCl buffer pH 7.4, SIV tilted peptide 0.966 μM
T1 construct: SIV; 12; 528-539; GVFVLGFLGFLA; purchased SYNT:EM (Nimes, France)

[2] = target: T2, Bordetella pertussis tilted peptide (Bordetella pertussis, UniProt P12255); assay type: biochemical; details: charged LUV, Tris NaCl buffer pH 7.4, Bordetella pertussis tilted peptide 2.42 μM (FIG. 8)
T2 construct: purchased EPYTOP (Nimes, France)
Description: A number of different systems have been developed to assay peptide membrane fusion activity. Large unilamellar vesicles (LUV) are appropriate model for biological membrane fusion. Their curvature and their stability mimic suitably the cell membrane. Several different techniques for detecting and quantifying vesicle fusion are in common use. These include fluorescence assays that monitor fusion-induced lipid mixing between the two lipid bilayers of the membranes by observing the increase of fluorescence of a probe included in a part of vesicles in mixture. The dilution of the probe by fusion of the two bilayers from the two categories of vesicles causes a decrease of the self-quenching phenomenon leading to an increase of the fluorescence intensity.
Two sets of LUV are prepared: LUV with fluorescent probe (labelled LUV) and free probe LUV (unlabelled LUV). The probe used is the octadecyl rhodamine chloride (R18) (Molecular probes, Eugene, Oreg.).
The first step is the preparation of large multilamellar vesicles. For this, a mixing of different lipids is operated in a round bottomed Büchi flask. […]
Vesicles fusion is determined by measuring the fluorescence intensity change resulting from the fluorescence of the R18 probe. Fluorescence is monitored using fluorimeter LS-50B Perkin-Elmer (Norwalk, Conn. USA). […]

[3] = uncharged LUV, Tris buffer without NaCl pH 8.0, SIV tilted peptide 0.966 μM (FIG. 5)

Row | Substance | concentration at which complete (or nearly complete) inhibition of fusion is reached ([1]; charged LUV) [µM] | concentration at which inhibition is complete ([1]; charged LUV) [µM] | concentration at which the fusogenic effect is inhibited completely [2] [µM] | further results
1 | lysophosphatidylcholine [reference compound] | – | – | – | effect on the fusion percentage ([1]; charged LUV, Tris NaCl buffer pH 8.0, agent at concentrations below 1 μM (FIG. 2)): no effect at all; antifusogenic activity ([1]; charged LUV, Tris NaCl buffer pH 8.0, agent at concentrations between 1 and 2 μM (FIG. 2)): < 50%
2 | cyclic surfactin with an iso-branched β-hydroxyled fatty acid chain containing 13 carbon atoms [SC13] | > 4.8 | – | – | –
3 | cyclic surfactin with a linear β-hydroxyled fatty acid chain containing 14 carbon atoms [SC14] | ~2.4 | – | – | –
4 | cyclic surfactin with an iso-branched β-hydroxyled fatty acid chain containing 15 carbon atoms [SC15] | ~2.4 | ~2.4 | ~4.8 | concentration at which fusion is completely inhibited ([1]; uncharged LUV, Tris NaCl buffer pH 8.0, SIV tilted peptide 0.966 μM (FIG. 4)): ~3.2 µM; antifusogenic activity in absence of NaCl compared with Tris NaCl buffer [1, 3]: slightly improved; concentration at which complete inhibition is reached [1, 3]: ~2 µM
5 | linear surfactin, with an linear β-hydroxylated fatty acid chain containing 14 carbon atoms and with a linear peptide part [LSC14] | – | – | – | inhibition of LUV fusion ([1]; charged LUV, agent at concentration near 2 μM (FIG. 6)): 60%
6 | cyclic fengycin A with a β-hydroxyled fatty acid chain containing 16 carbon atoms [FAC16] | ~1 | ~2.4 | ~1.61 | inhibition of LUV fusion ([1]; charged LUV, agent at 0.8 μM (FIG. 6)): 90%

From US20060166869A1, “Novel use of lipopeptide preparations” (priority 2002, published 2006)
